Measured values taken from article PMC6171417, “Carbonic anhydrase inhibition with a series of novel benzenesulfonamide-triazole conjugates” (Journal of Enzyme Inhibition and Medicinal Chemistry, 2018).

Legend:
Experiment in all cases: stopped-flow CO2 hydrase assay
Format in all cases: biochemical
[1] = molecular target: T1, hCA II (Homo sapiens, UniProt P00918)
T1 construct: gene CA2; recombinant, obtained in-house as reported earlier; cytosolic
Text: stopped-flow CO2 hydrase assay on hCA II

[2] = molecular target: T2, hCA IX (Homo sapiens, UniProt Q16790)
T2 construct: gene CA9; recombinant, obtained in-house as reported earlier
Text: stopped-flow CO2 hydrase assay on hCA IX

[3] = molecular target: T3, hCA IV (Homo sapiens, UniProt P22748)
T3 construct: gene CA4; recombinant, obtained in-house as reported earlier
Text: stopped-flow CO2 hydrase assay on hCA IV

[4] = molecular target: T4, hCA I (Homo sapiens, UniProt P00915)
T4 construct: gene CA1; recombinant, obtained in-house as reported earlier; cytosolic
Text: stopped-flow CO2 hydrase assay on hCA I

T4 sequence (P00915 2-261): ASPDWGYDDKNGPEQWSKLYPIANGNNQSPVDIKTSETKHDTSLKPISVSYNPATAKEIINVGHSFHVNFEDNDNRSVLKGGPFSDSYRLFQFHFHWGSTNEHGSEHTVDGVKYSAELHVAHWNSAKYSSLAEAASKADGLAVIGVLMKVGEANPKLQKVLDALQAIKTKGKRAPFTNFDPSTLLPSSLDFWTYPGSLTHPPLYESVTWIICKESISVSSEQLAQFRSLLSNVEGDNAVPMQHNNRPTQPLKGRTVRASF
T3 sequence (P22748 19-284): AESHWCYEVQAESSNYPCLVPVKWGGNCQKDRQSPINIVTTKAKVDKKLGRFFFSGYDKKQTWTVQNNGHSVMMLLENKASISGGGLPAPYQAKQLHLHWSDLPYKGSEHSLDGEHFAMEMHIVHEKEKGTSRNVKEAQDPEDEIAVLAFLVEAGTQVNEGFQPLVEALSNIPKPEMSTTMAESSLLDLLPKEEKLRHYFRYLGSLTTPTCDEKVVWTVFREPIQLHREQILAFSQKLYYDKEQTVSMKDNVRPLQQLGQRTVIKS

| SMILES | Ki [1] | Ki [2] | Ki [3] | Ki [4] |
| --- | --- | --- | --- | --- |
| N#Cc1nnn(-c2ccc(S(N)(=O)=O)cc2)c1/N=C/c1ccc(Cl)cc1 [compound 9, (E)-4-(5-((4-chlorobenzylidene)amino)-4-cyano-1H-1,2,3-triazol-1-yl) benzenesulfonamide] | 94.5 nM | 307 nM | 4670 nM | 1600 nM |
| CN(C)c1ccc(/C=N/c2c(C#N)nnn2-c2ccc(S(N)(=O)=O)cc2)cc1 [compound 10, (E)-4-(4-cyano-5-((4-(dimethylamino)benzylidene)amino)-1H-1,2,3-triazol-1-yl)benzenesulfonamide] | 179 nM | 451 nM | 3410 nM | 2920 nM |
| [N-]=[N+]=Nc1ccc(S(N)(=O)=O)cc1 [compound 2, 4-azido benzenesulfonamide] |  | 235 nM | > 10000 nM |  |
| N=c1c2nnn(-c3ccc(S(N)(=O)=O)cc3)c2[nH]c(=S)n1-c1ccc(S(=O)(=O)Nc2cnc3ccccc3n2)cc1 [compound 21] | 2370 nM | 3810 nM | 5030 nM | 5840 nM |
| N#Cc1nnn(-c2ccc(S(N)(=O)=O)cc2)c1NC(=O)CCl [compound 5, 2-chloro-N-(4-cyano-1-(4-sulfamoylphenyl)-1H-1,2,3-triazol-5-yl)acetamide] | 518 nM | 454 nM | 1200 nM | 2550 nM |
| Cc1ccc(S(=O)(=O)Nc2c(C#N)nnn2-c2ccc(S(N)(=O)=O)cc2)cc1 [compound 12, N-(4-cyano-1-(4-sulfamoylphenyl)-1H-1,2,3-triazol-5-yl)-4-methylbenzenesulfonamide] | 90.1 nM | 105 nM | 2610 nM | 8100 nM |
| N#Cc1nnn(-c2ccc(S(N)(=O)=O)cc2)c1NCC(=O)c1ccccc1 [compound 7, 4-(4-cyano-5-((2-oxo-2-phenylethyl)amino)-1H-1,2,3-triazol-1-yl)benzenesulfonamide] | 562 nM | 283 nM | 745 nM | 1790 nM |
| N#Cc1nnn(-c2ccc(S(N)(=O)=O)cc2)c1/N=C/c1ccccc1Cl [compound 8, (E)-4-(5-((2-chlorobenzylidene)amino)-4-cyano-1H-1,2,3-triazol-1-yl)-benzenesulfonamide] | 6130 nM | 1770 nM | > 10000 nM | 5140 nM |
| N#Cc1nnn(-c2ccc(S(N)(=O)=O)cc2)c1N [compound 3, 4-(5-amino-4-cyano-1H-1,2,3-triazol-1-yl)benzenesulfonamide] | 16.7 nM | 118 nM | 2270 nM | 1940 nM |

Continued, values first:

| Ki [1] | Ki [2] | Ki [3] | Ki [4] | SMILES |
| --- | --- | --- | --- | --- |
| 684 nM | 410 nM | 472 nM | 2860 nM | CC(=O)CC(=O)Nc1c(C#N)nnn1-c1ccc(S(N)(=O)=O)cc1 [compound 6, N-(4-cyano-1-(4-sulfamoylphenyl)-1H-1,2,3-triazol-5-yl)-3-oxobutanamide] |
| 6840 nM | 3710 nM | 3190 nM | 9940 nM | Nc1c(C2=NCCN2)nnn1-c1ccc(S(N)(=O)=O)cc1 [compound 4, 4-(5-amino-4-(4,5-dihydro-1H-imidazol-2-yl)-1H-1,2,3-triazol-1-yl)benzenesulfonamide] |
| 230 nM | 407 nM | 2580 nM | 2690 nM | N#Cc1c(-c2ccccc2Cl)nc2c(nnn2-c2ccc(S(N)(=O)=O)cc2)c1N [compound 15, 4-(7-amino-5-(2-chlorophenyl)-6-cyano-3H-[1,2,3]triazolo[4,5-b]pyridin-3-yl)benzenesulfonamide] |
| 57 nM | 46.4 nM | 676 nM | 1250 nM | N#Cc1c(-c2ccccc2)nc2c(nnn2-c2ccc(S(N)(=O)=O)cc2)c1N [compound 14, 4-(7-amino-6-cyano-5-phenyl-3H-[1,2,3]triazolo[4,5-b]pyridin-3-yl)benzenesulfonamide] |
| 589 nM | 158 nM | 2270 nM | 2800 nM | N=c1c2nnn(-c3ccc(S(N)(=O)=O)cc3)c2[nH]c(=O)n1-c1ccccc1 [compound 19, 4-(7-imino-5-oxo-6-phenyl-4,5,6,7-tetrahydro-3H-[1,2,3]triazolo[4,5-d]pyrimidin-3-yl)benzenesulfonamide] |
| 957 nM | 287 nM | 167 nM | 790 nM | N#Cc1c(N)c2nnn(-c3ccc(S(N)(=O)=O)cc3)c2[nH]c1=O [compound 13, 4-(7-amino-6-cyano-5-oxo-4,5-dihydro-3H-[1,2,3]triazolo[4,5-b]pyridin-3-yl) benzenesulfonamide] |
